Measurements from US11376271B1, “Methods of ameliorating the effects of alcoholic liver damage” (FULGENT LIFE INC., priority 2021, dated 2022).

How the values were obtained:
[1] = test system: AML12 cells; assay: Rescue from hydrogen peroxide (HP) genotoxicity: cell survival and NAD+ level; format: cell-based; conditions: 500 μM HP + 250 μM compound, 3 h, AML12 cells
Protocol: Because the increasing extent of NAD+ concentration is of interest, whether NADH can improve the cell survival rate under the stressful conditions of depletion of NAD+ was also assessed. To that end, as genotoxicity can lead to DNA damage, activate poly(ADP-ribose) polymerases and induce NAD+ depletion, genotoxicity was tested. Strong genotoxicity will lead to severe consumption of NAD+ by cells, resulting in cell death. To test genotoxicity, AML12 cells were treated with 500 μM hydrogen peroxide (HP) for 3 hours in the presence or absence of 1 mM NADH, and then the cells were counted and NAD+ was detected in the samples co-treated with NADH (1 mM) or its vehicle. FIG. 4A is a graph comparing the cell survival rate of the HP treated cells, NADH treated cells, and the HP+NADH treated cells relative to a control. And FIG. 4B is a graph comparing the NAD+ level of the HP treated cells, NADH treated cells, and the HP+NADH treated cells relative to a control. The cell survival rates and cellular NAD+ levels in FIGS. 4A-B are expressed as mean±SD.
The effects of NADH and NMN at a lower concentration (250 μM) on AML12 cells was also tested in a separate assay. Specifically, AML12 cells were treated with 500 μM HP in the presence or absence of 250 μm NADH or NMN for 3 h. FIG. 4C is a graph comparing the cell survival rate of the HP treated cells, HP+NADH treated cells, and the HP+NMN treated cells relative to a control. And FIG. 4D is a graph comparing the NAD+ level of the HP treated cells, HP+NADH treated cells, and the HP+NMN treated cells relative to a control. The cell survival rate and cellular NAD+ levels in FIGS. 4C-D are expressed as mean±SD.

[2] = test system: male C57BL/6J mice; assay: Tissue NAD+ content after intraperitoneal injection; format: in vivo; conditions: 250 mg/kg intraperitoneal, 4 hours
Protocol: In the below in vivo assays, C57BL/6J male mice (The Jackson Laboratory) (40 days of age) were used. They were kept under standard laboratory conditions with a temperature of 22±1° C., dark/light cycles of 12/12 h, and relative humidity of 55±5%. All animals had free access to food and water, except for indicated fasting periods (and where not indicated for fasting periods of 2 hours before administration).
[…] Specifically, ten 8-week-old male C57BL/6J mice (The Jackson Laboratory) were kept in polycarbonate cages under a 12-h light/dark cycle with free access to food and water. […] Four hours later, the blood samples were collected by cardiac puncture and the mice were executed. Liver, brain, muscle, and adipose tissues were collected, instantly frozen in liquid nitrogen, and then stored at −80° C. until performance of the NAD+ analyses. […] Four hours later, the mice were killed and tissue samples were collected. All animal studies were performed according to the Guidelines for the Care and Use of Experimental Animals. For this NAD+ assay, about 100 mg of frozen tissue was crushed in liquid nitrogen and ultrasonically homogenized in 7% perchloric acid, and then the solution was neutralized and subjected to the NAD+ determination described here.
Data are indicated as mean±SD.

[3] = test system: AML12 cells; assay: NAD+/NADH ratio in AML12 cells; conditions: 1 mM, 6 h, vs control

## NC(=O)c1ccc[n+]([C@@H]2O[C@H](COP(=O)([O-])O)[C@@H](O)[C@H]2O)c1 [NMN, nicotinamide mononucleotide, reference compound]
[1]
  effect on NAD+ levels under HP: much worse than that of NADH
  effect on cell survival under HP: much worse than that of NADH
[2]
  increase of the concentration of NAD+ in the liver: 170%
[3]
  NAD+/NADH ratio: significantly increase
